Assays:
[1] = molecular target: CYP143A1 (Mycobacterium tuberculosis) (UniProt P9WPL2); settings: cited from earlier work
CYP142A1 = molecular target: T1, CYP142A1 (Mycobacterium tuberculosis, UniProt P9WPL5); type: biochemical
T1 construct: gene cyp142

CYP125A1 = molecular target: T2, CYP125A1 (Mycobacterium tuberculosis, UniProt P9WPP1); assay: reconstituted turnover, GC-MS detection of 27-hydroxycholesterol; type: biochemical; settings: 0.5 μM CYP, 50 μM cholesterol in methyl-β-cyclodextrin; FdrA or FprA with FdxD or FdxE; pH 7.4; 37 °C
T2 construct: gene cyp125

CYP124A1 = molecular target: T3, CYP124A1 (Mycobacterium tuberculosis, UniProt P9WPP3); assay: as above; type: biochemical; settings: 0.5 μM CYP, 50 μM cholesterol in methyl-β-cyclodextrin; FdrA or FprA with FdxD or FdxE; pH 7.4; 37 °C
T3 construct: gene cyp124
T3 sequence (P9WPP3 whole entry): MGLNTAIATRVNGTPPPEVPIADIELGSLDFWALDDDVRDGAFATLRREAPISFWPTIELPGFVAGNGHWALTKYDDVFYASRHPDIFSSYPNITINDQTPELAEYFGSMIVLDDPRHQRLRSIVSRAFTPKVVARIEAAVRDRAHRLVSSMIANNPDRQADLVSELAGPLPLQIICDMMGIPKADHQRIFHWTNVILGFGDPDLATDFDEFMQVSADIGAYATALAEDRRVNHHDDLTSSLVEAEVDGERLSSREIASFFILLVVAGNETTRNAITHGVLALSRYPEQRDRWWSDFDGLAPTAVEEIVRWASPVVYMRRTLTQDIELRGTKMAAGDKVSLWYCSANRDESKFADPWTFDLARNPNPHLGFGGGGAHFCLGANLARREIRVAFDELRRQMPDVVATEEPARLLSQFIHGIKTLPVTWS

CYP143A1 (Mycobacterium tuberculosis), sequence (P9WPL2 whole entry): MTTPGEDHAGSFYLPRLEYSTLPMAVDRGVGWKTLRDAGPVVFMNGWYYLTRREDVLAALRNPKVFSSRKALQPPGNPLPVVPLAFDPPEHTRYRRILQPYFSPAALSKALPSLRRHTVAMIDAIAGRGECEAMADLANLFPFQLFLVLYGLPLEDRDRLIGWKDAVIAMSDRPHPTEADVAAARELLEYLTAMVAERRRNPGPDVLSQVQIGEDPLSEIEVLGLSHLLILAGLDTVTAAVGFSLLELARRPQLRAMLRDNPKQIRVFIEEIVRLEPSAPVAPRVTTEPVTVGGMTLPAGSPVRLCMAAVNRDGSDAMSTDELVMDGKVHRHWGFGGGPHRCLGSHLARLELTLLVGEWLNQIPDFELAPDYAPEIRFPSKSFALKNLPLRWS
ferredoxin Rv1786, sequence (O53937 whole entry): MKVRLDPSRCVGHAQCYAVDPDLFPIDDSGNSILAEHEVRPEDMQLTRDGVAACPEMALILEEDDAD
T1 sequence (P9WPL5 whole entry): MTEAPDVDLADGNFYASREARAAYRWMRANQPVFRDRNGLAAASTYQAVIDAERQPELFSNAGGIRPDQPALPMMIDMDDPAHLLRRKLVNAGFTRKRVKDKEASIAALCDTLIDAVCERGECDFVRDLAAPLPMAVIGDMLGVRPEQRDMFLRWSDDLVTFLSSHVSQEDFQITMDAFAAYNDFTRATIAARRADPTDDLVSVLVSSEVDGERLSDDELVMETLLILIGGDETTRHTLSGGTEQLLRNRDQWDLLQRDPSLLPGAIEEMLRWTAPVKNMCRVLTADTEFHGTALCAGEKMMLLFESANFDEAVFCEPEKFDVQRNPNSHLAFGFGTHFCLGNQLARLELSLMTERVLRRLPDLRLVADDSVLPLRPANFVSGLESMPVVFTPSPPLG
T2 sequence (P9WPP1 whole entry): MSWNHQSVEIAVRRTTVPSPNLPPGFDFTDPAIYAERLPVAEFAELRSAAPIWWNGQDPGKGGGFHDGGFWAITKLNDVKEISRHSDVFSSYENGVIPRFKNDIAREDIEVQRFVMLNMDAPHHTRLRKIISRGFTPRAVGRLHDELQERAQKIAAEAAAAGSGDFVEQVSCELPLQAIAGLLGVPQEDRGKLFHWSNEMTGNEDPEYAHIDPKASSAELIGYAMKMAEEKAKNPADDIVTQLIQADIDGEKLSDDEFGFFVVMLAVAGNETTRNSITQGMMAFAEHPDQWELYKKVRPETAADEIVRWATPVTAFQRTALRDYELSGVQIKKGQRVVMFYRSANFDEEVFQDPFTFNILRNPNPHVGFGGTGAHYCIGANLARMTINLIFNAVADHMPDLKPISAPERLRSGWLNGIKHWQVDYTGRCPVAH

Row | Compound | Kd [1] [nM] | reconstituted turnover, GC-MS detection of 27-hydroxycholesterol (CYP142A1) | reconstituted turnover, GC-MS detection of 27-hydroxycholesterol (CYP125A1) | reconstituted turnover, GC-MS detection of 27-hydroxycholesterol (CYP124A1)
1 | ferredoxin Rv1786 (from UniProt O53937) | 337 | – | – | –
2 | CC(C)CCC[C@@H](C)[C@H]1CC[C@H]2[C@@H]3CC=C4C[C@@H](O)CC[C@]4(C)[C@H]3CC[C@]12C [cholesterol] | – | CYP142A1 was found to be the most efficient in cholesterol conversion | only FdxD and FdxE were able to support cholesterol conversion | only FdxD and FdxE were able to support cholesterol conversion
